{
  "source": "patent US20230146795A1",
  "about": "“ENHANCEMENT OF ANTI-TUMOR ACTIVITY OF SHP2 INHIBITOR PYRIMIDINONE IN COMBINATION WITH NOVEL CANCER MEDICINES IN CANCERS” (TAIHO PHARMACEUTICAL CO., LTD., priority 2020, published 2023)",
  "key": {"[1]": {"target": "T1, SHP2 (Homo sapiens, UniProt Q06124)", "T1 sequence (Q06124 1-593)": "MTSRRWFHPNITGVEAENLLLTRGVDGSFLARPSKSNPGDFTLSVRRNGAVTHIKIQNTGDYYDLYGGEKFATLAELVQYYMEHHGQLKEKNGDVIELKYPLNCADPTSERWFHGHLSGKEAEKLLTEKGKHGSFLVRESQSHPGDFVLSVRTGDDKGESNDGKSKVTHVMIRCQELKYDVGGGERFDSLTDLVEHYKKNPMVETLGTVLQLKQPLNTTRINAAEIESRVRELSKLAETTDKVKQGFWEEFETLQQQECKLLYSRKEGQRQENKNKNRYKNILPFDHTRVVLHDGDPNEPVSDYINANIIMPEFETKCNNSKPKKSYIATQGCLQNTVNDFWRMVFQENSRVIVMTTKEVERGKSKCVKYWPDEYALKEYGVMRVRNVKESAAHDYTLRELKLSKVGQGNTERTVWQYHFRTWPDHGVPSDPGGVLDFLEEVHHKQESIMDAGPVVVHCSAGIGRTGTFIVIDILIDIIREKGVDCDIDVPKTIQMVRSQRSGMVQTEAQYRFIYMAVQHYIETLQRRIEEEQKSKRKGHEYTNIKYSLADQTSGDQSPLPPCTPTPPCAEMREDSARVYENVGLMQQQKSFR", "experiment": "SHP2 biochemical assay (DiFMUP conversion)", "settings": "10 pM SHP2, 0.25 μM pIRS1 peptide, 50 μM DiFMUP", "method": "(1) SHP2 Biochemical Assay SHP2 Activity was Monitored by Measuring the Conversion of the Surrogate Substrate 6,8-Difluoromethylumbelliferyl Phosphate (DiEMUP) to the Fluorescent Product, 6,8-Difluoromethylumbelliferone (DiFMU).\nSHP2 was pre-incubated with test compounds and the activating peptide pIRS1 (H2N-LN(pY) IDLDLV-(PEG) 8-LST(pY)ASINFQK-amide) for 30 min, prior to addition of the 6,8-difluoromethylumbelliferyl phosphate (DiEMUP), (Thermo Fisher D6567). Final assay concentrations were 10 pM SHP2, 0.25 μM pIRS1 peptide, 50 μM DiFMUP, 25 mM Bis-Tris propane, pH 7.0, 150 mM NaCl, 0.05% (v/v) Tween-20, 0.5 mM TCEP and 5% (v/v) DMSO. Rates of reaction were then measured over 30 min by monitoring fluorescence on a BMG Pherastar reader at excitation 360 nm/emission 450 nm. IC50 values were calculated in singlicate from the normalized dose-response plots using four parameter logistic curve fit. The Experiment for each compound was carried out in one time or multiple times, and the IC50 values were shown as a single value (for a compound measured in a single experiment) or an average value (for a compound measured in multiple experiments)."}, "[2]": {"test_system": "491 cell lines", "experiment": "In vitro cell line screening, both panels overall", "assay_type": "cell-based, human", "settings": "Total panel, sensitive = maximum inhibition greater than 50% relative to DMSO, max 3 μM Compound 1, 1 μM Compound 9, 120-hour incubation", "method": "(§1) Cells from human cancer cells lines (from commercial sources such as ATCC or ECCAC) were grown as 3D cultures by seeding cells into round-bottom ultra-low attachment 96-well tissue culture plates (Corning) followed by centrifugation. Cells were allowed to recover for 16-24 hours prior to compound treatment. Compounds or dimethyl sulfoxide (DMSO) were added at various combinations of compound concentrations in a final DMSO concentration of up to 0.5% (v/v). Following a total of 120-hour incubation, CellTiter-Glo 3D Reagent(registered trademark) (Promega) was added. Plates were incubated for 10 minutes with gentle shaking at room temperature to lyse the cells, then incubated for further 40 minutes at room temperature to stabilize luminescence signal. After mixing, the mixture was transferred to a fresh plate and luminescence was determined on EnVision plate reader (Perkin Elmer).\nas §1, with “as 2D monolayers” for “as 3D cultures”, “seeding onto flat-bottom” for “seeding cells into round-bottom ultra-low attachment”, “plates (Corning).” for “plates (Corning) followed by centrifugation.”, “CellTiter-Glo reagent(registered” for “CellTiter-Glo 3D Reagent(registered”, “further 10” for “further 40”, “fresh plate,” for “fresh plate”\nFor both 3D and 2D assays, the combination was tested as matrix of various concentrations of Compound 1 and Compound 9. The maximum concentrations of Compound 1 and Compound 9 used were 3 μM and 1 μM, respectively. Signals were normalized to that of the average of the DMSO control wells. […] For each cell line, the maximum % inhibition values were obtained for Compound 1 alone, Compound 9 alone and the combination of both compounds. The degree of drug interaction (i.e. synergy, additivity or antagonism) was quantified for each cell line by the Bliss independence model using the Synergyfinder R package (Ref: He L. et al. (2018) Methods for High-throughput Drug Combination Screening and Synergy Scoring. In: von Stechow L. (eds) Cancer Systems Biology. Methods in Molecular Biology, vol 1711. Humana Press, New York, N.Y.). For each cell line, a single score metric, the sum of synergy and antagonism across screened drug concentrations (SUM_SYN_ANT) (Ref: Di Veroli G. Y. et al (2016) Bioinformatics 32(18):2866-2868), was calculated. Synergy was defined as a score of 21 or above."}},
  "data": [
    {"smiles": "Cn1nc2ccc(-c3c[nH]c4nc(N5[C@H]6CC[C@@H]5[C@H](N)C6)n(C)c(=O)c34)c(Cl)c2c1Cl", "note": "[Compound 1, 2-((1R,2R,4S)-2-amino-7-azabicyclo[2.2.1]heptan-7-yl)-5-(3,4-dichloro-2-methyl-2H-indazol-5-yl)-3-methyl-3,7-dihydro-4H-pyrrolo[2,3-d]pyrimidin-4-one]", "values": [
      {"measurement": "IC50", "setting": "[1]", "result": 2, "unit": "nM"},
      {"measurement": "Number of cell lines sensitive", "setting": "[2]", "result": 175},
      {"measurement": "Number of cell lines sensitive (% of total)", "setting": "[2]", "result": "(35.6) %"}
    ]}
  ]
}
